According to patent publication US20030068789A1, “Method for cultivating microorganism” (priority 2000, published 2003):

Test system: microorganism having nitrile hydratase activity
Experiment: Growth inhibition caused by cobalt ions in cultivating a microorganism
Assay type: cell-based
Conditions: sugar present in culture solution as carbon source
Excerpt: The present inventors have conducted intensive studies on culture conditions to industrially obtain microbial cells having nitrile hydratase activity within a short period and at a high yield. […] Thus, the present invention has been accomplished.
As a result, it is possible to obtain microbial cells having nitrile hydratase enzyme activity within a short period and at a high yield

SMILES	growth inhibition caused by cobalt ions
OC[C@@H](O)[C@@H](O)[C@H](O)[C@H](O)CO [mannitol]	can reduce growth inhibition caused by cobalt ions
O=C(CO)[C@@H](O)[C@H](O)[C@H](O)CO [fructose]	can reduce growth inhibition caused by cobalt ions
